The test system of one data set is ddy strain of male mice. Briefly: Acute toxicity (oral, 7 days observation). The class given is in vivo. As to conditions: 2000 mg/kg, oral, mice, 7 days. On the procedure: (§1) Next, several tests for determining the pharmacological properties, in that acute toxicity, anti-pyretic activity, analgesic activity and anti-inflammatory activity of the present 1,1,3,5-substituted biuret compounds of the formula (1) were conducted and the test results are shown in Table (2). In the tests, each compounds to be tested was used as a suspension in 0.25% carboxymethylcellulose solution. Methods for testing are explained as follows:
(§2) The ddy strain of male mice (body weight, 20-25 g) were used as test animals. The mice were fasted overnight and the compound to be tested was administered orally. […] The lethal dose (mg/kg, body weight) of the test compound was determined in connection with the death number of mice/the number of mice tested. In Table 2, the values indicated with Δ marks are 50% lethal dose, LD50 (mg/kg, body weight).
For the molecule `Cc1cccc(NC(=O)N(C)C(=O)N(C)C)c1` [compound 21, 1,1,3-Trimethyl-5-(3-methylphenyl)biuret], the “Acute toxicity, death number of mice/number of mice tested” value is 2/4.

Tested on in another data set: not listed separately
Kind of data set: Acute toxicity (oral, 7 days observation). As to conditions: mouse, in vivo, po; read-out: Acute toxicity, 50% lethal dose, LD50 (values with Δ marks). It is filed as in vivo. The procedure: as §1, §2
As for `CN(C)C(=O)N(C)C(=O)NC1CCCCC1` [compound 29, 1,1,3-Trimethyl-5-cychlohexylbiuret], the LD50 at 168 h is 1450 mg/kg.

The same data set, now with this note: mouse, in vivo; oral, mice, 7 days; read-out: Acute toxicity, 50% lethal dose, LD50 (values with Δ marks).
For `CN(C)C(=O)N(C)C(=O)Nc1ccccc1` [Compound No. 1, 1,1,3-Trimethyl-5-phenylbiuret], the 50% lethal dose (LD50) at 168 h was determined as 1710 mg/kg.

As to `CN(C)C(=O)N(C)C(=O)Nc1ccc(F)cc1` [Compound No. 3, 1,1,3-Trimethyl-5-(4-fluorophenyl)biuret], the LD50 at 168 h came to 930 mg/kg.

Regarding `CN(C)C(=O)N(C)C(=O)Nc1ccc(Cl)cc1` [Compound No. 7, 1,1,3-trimethyl-5-p-chlorophenylbiuret], the LD50 at 168 h turned out to be 1200 mg/kg.

Take `CN(C)C(=O)N(C)C(=O)Nc1ccc(Br)cc1` [Compound No. 11, 1,1,3-Trimethyl-5-(4-bromophenyl)biuret]: the 50% lethal dose (LD50) at 168 h was determined as 1350 mg/kg.

In the case of `Cc1cccc(C)c1NC(=O)N(C)C(=O)N(C)C` [compound 24, 1,1,3-Trimethyl-5-(2,6-dimethylphenyl)biuret], the LD50 at 168 h stood at 595 mg/kg.

Take `CCN(C)C(=O)N(C)C(=O)Nc1ccccc1` [compound 33, 1-Ethyl-1,3-dimethyl-5-phenylbiuret]: the 50% lethal dose (LD50) at 168 h turned out to be 1290 mg/kg.

Another data set deals with ddy strain of male mice. Kind of data set: Analgesic activity, Haffner method. The following applies: 100 mg/kg oral, with threshold morphine hydrochloride s.c. The class given is in vivo, mouse (ddy strain. On the procedure: as §1
According to the modified method reported by Fujimura et al., [Bulletin of the Institute for Chemical Research, Kyoto University, No. 25, pp. 36 (1951)], the ddy strain of male mice (body weight, 20-25 g) were used as test animals. The mice were fasted overnight, 100 mg/kg body weight of the test compound was administered orally, then 45 minutes after the administration, the threshold amount (1.5-2.5 mg/kg body weight) of morphine hydrochloride was injected subcutaneously. Then 1-hour pain reaction of the mouse caused by a clamp was observed. Analgesic activity of the test compound was calculated as the inhibitory ratio (%). In Table 2, the values in parentheses show the data obtained from the test by using the dosage other than 100 mg/kg body weight. Further, the values indicated with Δ marks show 50% effective dose, ED50 (mg/kg body weight).
Consider `CN(C)C(=O)N(C)C(=O)Nc1ccc(F)cc1` [Compound No. 3, 1,1,3-Trimethyl-5-(4-fluorophenyl)biuret], for which the “Analgesic activity, Haffner method, inhibitory ratio” value is reported as 62.5%.

With `Cc1cccc(NC(=O)N(C)C(=O)N(C)C)c1` [compound 21, 1,1,3-Trimethyl-5-(3-methylphenyl)biuret], the “Analgesic activity, Haffner method, inhibitory ratio” value amounted to 37.5%.

Turning to `Cc1cccc(C)c1NC(=O)N(C)C(=O)N(C)C` [compound 24, 1,1,3-Trimethyl-5-(2,6-dimethylphenyl)biuret], the “Analgesic activity, Haffner method, inhibitory ratio” value came to 37.5%.

As to `CN(C)C(=O)N(C)C(=O)NC1CCCCC1` [compound 29, 1,1,3-Trimethyl-5-cychlohexylbiuret], the “Analgesic activity, Haffner method, inhibitory ratio” value was determined as 25%.

Staying with this data set, now noted: oral, with threshold morphine hydrochloride s.c., range in parentheses.
As for `CN(C)C(=O)N(C)C(=O)Nc1ccccc1` [Compound No. 1, 1,1,3-Trimethyl-5-phenylbiuret], the “Analgesic activity, Haffner method, 50% effective dose, ED50 (values with Δ marks)” value is reported as 68(52-88) mg/kg.

For the molecule `CN(C)C(=O)N(C)C(=O)Nc1ccc(Cl)cc1` [Compound No. 7, 1,1,3-trimethyl-5-p-chlorophenylbiuret], the “Analgesic activity, Haffner method, 50% effective dose, ED50 (values with Δ marks)” value is 20(11-35) mg/kg.

Take `CN(C)C(=O)N(C)C(=O)Nc1ccc(Br)cc1` [Compound No. 11, 1,1,3-Trimethyl-5-(4-bromophenyl)biuret]: the “Analgesic activity, Haffner method, 50% effective dose, ED50 (values with Δ marks)” value is listed as 74(49-113) mg/kg.

The next data set deals with Wistar strain of male rats. Kind of data set: Anti-pyretic activity (dry-yeast induced fever). The class given is in vivo, rat (Wistar strain. As to conditions: oral, up to 4 hours after administration, dose not given. On the procedure:
as §1
According to the method reported by Tanabe [Folia Pharmacologia Japonica, Vol. 73, pp. 803 (1977)], the Wistar strain of male rats (150-180 g body weight) were used as test animals. The rats were fasted overnight, and 1 ml/100 g (body weight) of 10% dry-yeast suspension were subcutaneously injected on the back of the rats. Five hours after the injection, the test compound was administered orally, then the body temperature of the rat was measured at time sequences. Anti-pyretic activity of the test compound was determined as the FI (febril index) by integrating pyrogenetic curve up to 4 hours after the administration of the test compound with time, and indicated as inhibitory ratio (%) shown by the following formula, [formula]
Consider `CN(C)C(=O)N(C)C(=O)Nc1ccccc1` [Compound No. 1, 1,1,3-Trimethyl-5-phenylbiuret], for which the “Anti-pyretic activity, inhibitory ratio of febril index (FI)” value is on record as 80%.

Consider `CN(C)C(=O)N(C)C(=O)Nc1ccc(F)cc1` [Compound No. 3, 1,1,3-Trimethyl-5-(4-fluorophenyl)biuret], for which the “Anti-pyretic activity, inhibitory ratio of febril index (FI)” value is 61%.

For the molecule `CN(C)C(=O)N(C)C(=O)Nc1ccc(Cl)cc1` [Compound No. 7, 1,1,3-trimethyl-5-p-chlorophenylbiuret], the “Anti-pyretic activity, inhibitory ratio of febril index (FI)” value is reported as 84%.

`CN(C)C(=O)N(C)C(=O)Nc1ccc(Br)cc1` [Compound No. 11, 1,1,3-Trimethyl-5-(4-bromophenyl)biuret]: the “Anti-pyretic activity, inhibitory ratio of febril index (FI)” value turned out to be 103%.

Consider `Cc1cccc(NC(=O)N(C)C(=O)N(C)C)c1` [compound 21, 1,1,3-Trimethyl-5-(3-methylphenyl)biuret], for which the “Anti-pyretic activity, inhibitory ratio of febril index (FI)” value turned out to be 31%.

In the case of `Cc1cccc(C)c1NC(=O)N(C)C(=O)N(C)C` [compound 24, 1,1,3-Trimethyl-5-(2,6-dimethylphenyl)biuret], the “Anti-pyretic activity, inhibitory ratio of febril index (FI)” value stood at 69%.

Take `CCN(C)C(=O)N(C)C(=O)Nc1ccccc1` [compound 33, 1-Ethyl-1,3-dimethyl-5-phenylbiuret]: the “Anti-pyretic activity, inhibitory ratio of febril index (FI)” value amounted to 49%.

The subject of the next data set is Wistar strain of male rats. Kind of data set: Anti-inflammatory activity, acute carrageenin-induced inflammatory test. The class given is in vivo, rat (Wistar strain. The following applies: Rattus norvegicus, po, 2 h, read-out: Anti-inflammatory activity, inflammation inhibitory ratio (2 hours value). On the procedure:
as §1
According to the method of acute carrageenin-induced inflammatory test [Folia Pharmacologia Japonica, Vol. 56, pp. 575 (1960)], the Wistar strain of male rats (body weight, 150-180 g) were used as test animals. The rats were fasted overnight, 100 mg/kg body weight of the test compound was administered orally, then 1 hour after the administration, 0.1 ml of 1% carrageenin solution, as the inflammation inducing agent, was injected subcutaneously to the hindpaw of the rat and the volume of the hindpaw was measured at time sequences. Anti-inflammatory activity of the test compound was calculated as inflammation inhibitory ratio (%) at 3 hours after the injection of the inflammation inducing agent.
As for `CN(C)C(=O)N(C)C(=O)Nc1ccc(Br)cc1` [Compound No. 11, 1,1,3-Trimethyl-5-(4-bromophenyl)biuret], the inhibition in vivo at 100 mg/kg was found to be 48%.

The data set is the same for the next values; noted with them: Rattus norvegicus, po, 3 h, read-out: Anti-inflammatory activity, inflammation inhibitory ratio.
In the case of `CN(C)C(=O)N(C)C(=O)Nc1ccccc1` [Compound No. 1, 1,1,3-Trimethyl-5-phenylbiuret], the inhibition in vivo at 100 mg/kg is 59%.

Regarding `CN(C)C(=O)N(C)C(=O)Nc1ccc(Cl)cc1` [Compound No. 7, 1,1,3-trimethyl-5-p-chlorophenylbiuret], the inhibition in vivo at 100 mg/kg turned out to be 47%.

As for `Cc1cccc(NC(=O)N(C)C(=O)N(C)C)c1` [compound 21, 1,1,3-Trimethyl-5-(3-methylphenyl)biuret], the inhibition in vivo at 100 mg/kg turned out to be 28%.

The data set is the same for the next values; noted with them: Rattus norvegicus; 100 mg/kg oral, rats, 2 hours value; read-out: Anti-inflammatory activity, inflammation inhibitory ratio (2 hours value).
For the molecule `CN(C)C(=O)N(C)C(=O)NC1CCCCC1` [compound 29, 1,1,3-Trimethyl-5-cychlohexylbiuret], the inhibition in vivo at 100 mg/kg was 24%.

The data set is the same for the next values; noted with them: Rattus norvegicus; 100 mg/kg oral, rats, 3 hours after carrageenin; read-out: Anti-inflammatory activity, inflammation inhibitory ratio.
For `CN(C)C(=O)N(C)C(=O)Nc1ccc(F)cc1` [Compound No. 3, 1,1,3-Trimethyl-5-(4-fluorophenyl)biuret], the inhibition in vivo at 100 mg/kg was found to be 37%.

For `CCN(C)C(=O)N(C)C(=O)Nc1ccccc1` [compound 33, 1-Ethyl-1,3-dimethyl-5-phenylbiuret], the inhibition in vivo at 100 mg/kg amounted to 34%.

The subject of the next data set is ddy strain of male mice. Kind of data set: Analgesic activity, acetic acid-induced stretching method. The class given is in vivo, mouse (ddy strain. The following applies: Mus musculus, po, read-out: Analgesic activity, acetic acid-induced stretching method, 50% effective dose, ED50 (values with Δ marks). On the procedure:
as §1
According to the method reported by Koster et al., [Fed. Proc., Vol. 18, pp. 412 (1959)], the ddy strain of male mice (body weight, 20-25 g) were used as test animals. The mice were fasted overnight, 100 mg/kg body weight of the test compound was administered orally, then 1 hour after the administration, 0.2 ml of 0.7% acetic acid solution was injected intraperitoneally. The acetic acid-induced stretching symptom of mouse was observed. Analgesic activity of the test compound was calculated as the inhibitory ratio (%). In Table 2, the values in Parentheses show the data obtained from the test by using the dosage other than 100 mg/kg body weight. Further, the values indicated with Δ marks show 50% effective dose, ED50 (mg/kg body weight).
Turning to `CN(C)C(=O)N(C)C(=O)Nc1ccccc1` [Compound No. 1, 1,1,3-Trimethyl-5-phenylbiuret], the 50% effective dose (ED50) turned out to be 75 mg/kg.

With `CN(C)C(=O)N(C)C(=O)Nc1ccc(Cl)cc1` [Compound No. 7, 1,1,3-trimethyl-5-p-chlorophenylbiuret], the 50% effective dose (ED50) is 12 mg/kg.

`CN(C)C(=O)N(C)C(=O)Nc1ccc(Br)cc1` [Compound No. 11, 1,1,3-Trimethyl-5-(4-bromophenyl)biuret]: the ED50 came out at 60 mg/kg.

The data set is the same for the next values; noted with them: Mus musculus, po, read-out: Analgesic activity, acetic acid-induced stretching method, inhibitory ratio.
With `CN(C)C(=O)N(C)C(=O)Nc1ccc(F)cc1` [Compound No. 3, 1,1,3-Trimethyl-5-(4-fluorophenyl)biuret], the inhibition in vivo at 100 mg/kg was 87.5%.

In the case of `Cc1cccc(NC(=O)N(C)C(=O)N(C)C)c1` [compound 21, 1,1,3-Trimethyl-5-(3-methylphenyl)biuret], the inhibition in vivo at 100 mg/kg was 75%.

With `Cc1cccc(C)c1NC(=O)N(C)C(=O)N(C)C` [compound 24, 1,1,3-Trimethyl-5-(2,6-dimethylphenyl)biuret], the inhibition in vivo at 100 mg/kg was 75%.

For the molecule `CN(C)C(=O)N(C)C(=O)NC1CCCCC1` [compound 29, 1,1,3-Trimethyl-5-cychlohexylbiuret], the inhibition in vivo at 200 mg/kg worked out at 87.5%.

Take `CCN(C)C(=O)N(C)C(=O)Nc1ccccc1` [compound 33, 1-Ethyl-1,3-dimethyl-5-phenylbiuret]: the inhibition in vivo at 80 mg/kg came to 50%.

For the origin of these results see patent US4293713A, “Novel 1,1,3,5-substituted biuret compound and a pharmaceutical composition containing the same” (priority 1979, dated 1981).
